According to patent US20190281828A1 (priority 2016, published 2019):

Key:
[1] = test system: Septoria tritici; conditions: 500 ppm of active ingredient; preventive spray on young wheat plants; evaluated 24 days after inoculation
Experimental: (§6) • Solvent: 5% by volume of Dimethyl sulfoxide • 10% by volume of Acetone • Emulsifier: 1 μl of Tween® 80 per mg of active ingredient
(§7) The active ingredients are made soluble and homogenized in a mixture of Dimethyl sulfoxide/Acetone/Tween® 80 and then diluted in water to the desired concentration.
(§8) Control plants are treated only with an aqueous solution of Acetone/Dimethyl sulfoxide/Tween® 80.
After 24 hours, the plants are contaminated by spraying the leaves with an aqueous suspension of Septoria tritici spores. The contaminated wheat plants are incubated for 72 hours at 18° C. and at 100% relative humidity and then for 21 days at 20° C. and at 90% relative humidity.
The test is evaluated 24 days after the inoculation.

[2] = test system: Alternaria alternata; assay: In vitro test for ED50 values, liquid culture, Alternaria alternata; type: cell-based; conditions: inhibition of spore germination and mycelium growth, 4 to 7 days incubation
From the text: (§1) Example E: In Vitro Test for the Calculation of ED50-Values; Comparison of Compounds According to the Invention Vs. Compounds Encompassed by WO 2010/146116 A1
(§2) • Solvent: DMSO • Culture medium: 14.6 g anhydrous D-glucose (VWR), 7.1 g Mycological Peptone (Oxoid), 1.4 g granulated Yeast Extract (Merck) per 1 liter water • Inoculum: spore suspension
(§3) Fungicides were solubilized in DMSO and the resulting solutions used to prepare test solutions of different fungicide concentrations in the required range. The final concentration of DMSO used in the assay was <1% by volume.
(§4) A spore suspension was prepared and diluted to the desired spore density.
(§5) Fungicides were evaluated for their ability to inhibit spore germination and mycelium growth in liquid culture assay. The compounds were added in the desired concentration to the culture medium with spores. After 4 to 7 days incubation, fungi-toxicity of compounds was determined by spectrometric measurement of mycelium growth. Inhibition of fungal growth was determined by comparing the absorbance values in wells containing the fungicides with the absorbance in control wells without fungicides.

[3] = test system: Pyricularia oryzae; type: cell-based; conditions: inhibition of spore germination and mycelium growth, liquid culture, 4 to 7 days incubation
[4] = test system: Uromyces appendiculatus; conditions: 500 ppm of active ingredient; preventive spray on young bean plants; evaluated 11 days after inoculation
Experimental: as §6, §7, §8
After 24 hours, the plants are contaminated by spraying the leaves with an aqueous suspension of Uromyces appendiculatus spores. The contaminated bean plants are incubated for 24 hours at 20° C. and at 100% relative humidity and then for 10 days at 20° C. and at 70-80% relative humidity.
(§9) The test is evaluated 11 days after the inoculation.

[5] = test system: Sphaerotheca fuliginea; conditions: 500 ppm of active ingredient; preventive spray on young gherkin plants; evaluated 15 days after inoculation
Experimental: Example C: In Vivo Preventive Test on Sphaerotheca fuliginea (Powdery Mildew on Cucurbits)
as §6, §7, §8
After 24 hours, the plants are contaminated by spraying the leaves with an aqueous suspension of Sphaerotheca fuliginea spores. The contaminated gherkin plants are incubated for 72 hours at 18° C. and at 100% relative humidity and then for 12 days at 20° C. and at 70-80% relative humidity.
The test is evaluated 15 days after the inoculation.

[6] = test system: Puccinia recondita; conditions: 500 ppm of active ingredient; preventive spray on young wheat plants; evaluated 11 days after inoculation
Experimental: Example A: In Vivo Preventive Test on Puccinia recondita (Brown Rust on Wheat)
as §6, §7, §8
After 24 hours, the plants are contaminated by spraying the leaves with an aqueous suspension of Puccinia recondita spores. The contaminated wheat plants are incubated for 24 hours at 20° C. and at 100% relative humidity and then for 10 days at 20° C. and at 70-80% relative humidity.
as §9

[7] = physchem; conditions: reversed phase HPLC column
From the text: Calibration was done with straight-chain alkan2-ones (with 3 to 16 carbon atoms) with known Log P values (measurement of Log P values using retention times with linear interpolation between successive alkanones).

[8] = test system: Septoria tritici; assay: In vitro test for ED50 values, liquid culture, Septoria tritici; type: cell-based; conditions: inhibition of spore germination and mycelium growth, 4 to 7 days incubation
From the text: as §1, §2, §3, §4, §5

[9] = test system: Botrytis cinerea; assay: In vitro test for ED50 values, liquid culture, Botrytis cinerea; type: cell-based; conditions: inhibition of spore germination and mycelium growth, 4 to 7 days incubation
From the text: as §1, §2, §3, §4, §5

Compound	efficacy [1]	Alternaria alternata ED50 value in ppm [2] [ppm]	Pyricularia oryzae ED50 value in ppm [3] [ppm]	efficacy [4]	efficacy [5]	efficacy [6]	chromatographic logP [7]	Septoria tritici ED50 value in ppm [8] [ppm]	Botrytis cinerea ED50 value in ppm [9] [ppm]
Clc1ccc(Oc2ccc(C3(Cn4cncn4)OCCO3)c(Cl)n2)cc1 [I.01, 2-chloro-6-(4-chlorophenoxy)-3-[2-(1,2,4-triazol-1-ylmethyl)-1,3-dioxolan-2-yl]pyridine]	at least 70%	0.12	0.56	at least 70%	at least 70%	at least 70%	2.86	–	–
CC1COC(Cn2cncn2)(c2cnc(Oc3ccc(Cl)cc3)cc2Cl)O1 (stereo not drawn) [reference compound]	–	–	9.5	–	–	–	–	0.013	8.9
Clc1ccc(Oc2cc(Cl)c(C3(Cn4cncn4)OCCO3)cn2)cc1 [reference compound]	–	0.5	1.3	–	–	–	–	–	–
CC1COC(Cn2cncn2)(c2ccc(Oc3ccc(Cl)cc3)nc2Cl)O1 (stereo not drawn) [I.02]	–	–	1.2	–	–	–	–	0.008	2.7
